The results in this text go back to paper PMC11952234, “Functional profiling of synthetic camel milk-derived peptides with implication in glucose transport and diabetes” (PLOS One, 2025).

Marks after values point to notes of the source that are not given here.

One test relates to HepG2 cells. Nature of the test: Glucose uptake assay (Glucose Uptake-Glo) in HepG2 cells. Format: cell-based, human. The following applies: 1 hour, 37°C. As to the method: Glucose uptake in HepG2 cells was carried out using Glucose Uptake-Glo Assay (Promega). For this, cells seeded in a 96-well white plate (50,000 cells/well) were first washed with PBS and starved in phenol red-, glucose-, and serum-free medium (Dulbecco’s modified Eagle’s medium containing 0.01 mM HEPES, 0.3 mg/ml glutamine, 100 IU/ml penicillin, and 100 µg/ml streptomycin). […] The treatment was removed, and the cells were washed once with PBS and then incubated with 50 μL/well of freshly prepared 2-deoxyglucose (500 μM) for 10 minutes at room temperature. The uptake process was stopped and neutralized, followed by the addition of 50 μl/well of 2-deoxyglucose-6-phosphate (2DG6P) detection reagent and incubation for 15-60 minutes at room temperature. The glucose-6-phosphate dehydrogenase (G6PDH) oxidizes 2DG6P to 6-phosphodeoxygluconate (6PDG) and reduces NADP + to NADPH. The reductase uses NADPH to convert the proluciferin to luciferin, which is then used by Ultra-Glo™ recombinant luciferase to produce luminescence. This luminescence, proportional to the amount of 2-deoxyglucose transported inside the cells upon treatment, was then measured using a 0.3–1 second integration on GloMax® Discover luminometer according to Glucose Uptake-Glo™ protocol.

Test [1] concerns the target T1, insulin receptor (IR); interaction of IR-Rluc with IRS1-YFP in HEK293 cells (Homo sapiens, UniProt P06213).
T1 construct: expressed in transfected cells; host or cells: HEK293 cells, transient co-transfection; plasmids provided by Dr. Tarik Issad (Cochin Institute, Paris)
The test can be described thus: BRET assay of IR activation (IR-Rluc/IRS1-YFP), single treatment, dose-response. Type of test: cell-based. The following applies: for BRET, % of the maximal response of insulin, Average: HEK293, 1 hour, minimal data set for Figure 1, average. Here is the method: (§1) HepG2 and HEK293 cells were maintained at 37°C, 5% CO2 in complete RPMI and Dulbecco’s modified Eagle’s medium (DMEM), respectively, containing 0.3 mg/ml glutamine, 100 IU/ml penicillin, and 100 µg/ml streptomycin) supplemented with 10% fetal calf serum (Gibco, Carlsbad, CA, USA). The transient transfection in HEK293 cells was carried out in 75 cm flask containing 10^7 cells using Lipofectamine 2000 and 5 µg of IR-Rluc and 5 µg of IRS1-YFP (for BRET and phosphorylation experiments) as previously described. All assays were performed 48 hours post-transfection.
(§2) BRET technology was used for IR activation and its interaction with IRS1 as previously described. […] Following treatments, 10 μl of Coelenterazine h was added to a final concentration of 5 µ M and BRET measurements were carried out using the Tristar 2 multi-label plate reader (Berthold, Germany), allowing luminescence recording and signal integration at 480 nm and 540 nm.
(§3) Statistical analyses were performed statistical significance between the different treatments and conditions as indicated in the figures and tables and their captions. […] The significance is indicated in the figures by stars (****p-value < 0.0001, ***p-value < 0.001, ** p-value < 0.01, * p-value < 0.05), and the absence of stars means non-significant (p-value > 0.05). However, the two-way ANOVA was used for multiple comparisons to determine the statistical significance between the different peptides when compared to each other in the different assays as described in the tables.

The test system of test [2] is AKT phosphorylation (pAKT-S473) in HepG2 cells. The test can be described thus: AKT phosphorylation by western blot in HepG2 cells. Type of test: cell-based, human. The following applies: 0.1 mg/ml peptide, 10 minutes, 37°C, 3 independent experiments. Here is the method: (§4) Following treatment, cells were then lysed with RIPA lysis buffer and thereafter centrifuged at 12000 × g for 30 minutes. Thereafter, the extracted cell lysate proteins were quantified using the bicinchoninic acid (BCA) protein assay. To examine the phosphorylation status of IR and AKT, 30-40 μg of proteins were loaded on 10% SDS-PAGE gel followed by western blot using the following antibodies: the mouse monoclonal anti-phospho-IR (pIR-Tyr1334)(1:1000 dilution) and the mouse monoclonal anti-phospho-AKT (pAKT-S473)(1:2000 dilution) as previously described. The corresponding total proteins loaded were also analyzed in parallel using the specific antibodies against the native forms of the different proteins. Densitometry analysis of the different western blots was performed using Image Studio Version 5.2 software from LICOR (Lincoln, Nebraska, USA).
For orientation: Immunoblotting shows a protein as a band on a membrane.

For test [3], the system named is IR phosphorylation (pIR-Tyr1334) in HepG2 cells. Nature of the test: IR phosphorylation by western blot in HepG2 cells. Type of test: cell-based, human. To be noted: 0.1 mg/ml peptide, 10 minutes, 37°C, 3 independent experiments. Here is the method: as §4
In test [4] the test system is insulin receptor (IR); insulin-induced IR-Rluc/IRS1-YFP BRET in HEK293 cells. The test can be described thus: BRET assay of IR activation, peptides combined with insulin. Type of test: cell-based, human. Here is the method:
as §1, §2
as §3, with “For BRET, the data were normalized by taking as 100% of the maximal insulin-induced BRET signal in the vehicle and analyzed using GraphPad Prism software (San Diego, CA, USA). Statistical” for “Statistical”, “tables. In this case, the different letters indicate statistically significant effects (p-value < 0.05), while the same letters indicate no significant difference between the different treatments compared to each other.” for “tables.”
(In general: BRET reads energy transfer from a luciferase to a nearby fluorophore.)

T1 sequence (P06213 28-758 limits assumed): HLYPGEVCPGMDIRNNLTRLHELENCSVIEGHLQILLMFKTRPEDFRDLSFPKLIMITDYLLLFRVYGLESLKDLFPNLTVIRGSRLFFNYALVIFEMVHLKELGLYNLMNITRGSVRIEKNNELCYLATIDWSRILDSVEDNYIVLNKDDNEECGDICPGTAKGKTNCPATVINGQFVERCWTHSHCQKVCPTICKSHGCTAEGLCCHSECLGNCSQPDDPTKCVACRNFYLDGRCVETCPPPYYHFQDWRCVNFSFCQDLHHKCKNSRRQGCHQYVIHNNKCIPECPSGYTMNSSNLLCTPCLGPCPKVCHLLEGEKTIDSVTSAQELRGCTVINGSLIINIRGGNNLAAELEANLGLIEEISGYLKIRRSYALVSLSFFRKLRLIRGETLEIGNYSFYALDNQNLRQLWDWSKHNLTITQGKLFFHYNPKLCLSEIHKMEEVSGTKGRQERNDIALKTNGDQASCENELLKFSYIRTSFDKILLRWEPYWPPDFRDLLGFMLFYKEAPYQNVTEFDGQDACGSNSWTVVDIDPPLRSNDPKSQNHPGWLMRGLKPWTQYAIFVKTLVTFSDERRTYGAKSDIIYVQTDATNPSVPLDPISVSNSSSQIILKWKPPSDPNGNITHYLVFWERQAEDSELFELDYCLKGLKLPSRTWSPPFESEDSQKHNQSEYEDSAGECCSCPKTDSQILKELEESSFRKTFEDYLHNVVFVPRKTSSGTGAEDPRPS
T1 sequence (P06213 763-1382 limits assumed): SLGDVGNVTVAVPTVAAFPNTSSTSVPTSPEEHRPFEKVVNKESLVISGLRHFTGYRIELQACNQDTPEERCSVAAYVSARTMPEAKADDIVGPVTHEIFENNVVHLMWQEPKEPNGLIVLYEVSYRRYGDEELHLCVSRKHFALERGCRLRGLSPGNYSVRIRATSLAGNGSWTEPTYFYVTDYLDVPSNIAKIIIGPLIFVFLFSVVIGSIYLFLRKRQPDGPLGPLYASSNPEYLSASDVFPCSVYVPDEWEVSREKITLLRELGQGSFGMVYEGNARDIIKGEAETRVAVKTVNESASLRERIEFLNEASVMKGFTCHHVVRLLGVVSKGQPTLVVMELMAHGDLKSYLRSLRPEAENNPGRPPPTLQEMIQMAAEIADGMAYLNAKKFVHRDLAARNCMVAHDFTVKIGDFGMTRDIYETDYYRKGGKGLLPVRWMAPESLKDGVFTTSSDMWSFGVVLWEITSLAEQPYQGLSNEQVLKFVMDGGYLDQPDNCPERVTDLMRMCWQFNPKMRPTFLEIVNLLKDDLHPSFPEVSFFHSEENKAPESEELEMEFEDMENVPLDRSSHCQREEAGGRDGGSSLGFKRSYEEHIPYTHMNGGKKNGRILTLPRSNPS

Turning to MPVQA [Peptide P4], the “glucose uptake, specific luminescence signal, Average” value in the test on HepG2 cells (Average of Experiments 1-5, HepG2, 0.1 mg/ml peptide or 1 μM insulin, minimal data set for Figure 5) was determined as 1978100. For the same substance, in the test on HepG2 cells (HepG2 cells, 0.1 mg/ml peptide or 1 μM insulin, % of insulin's response taken as 100%, mean ± SD of five independent experiments in triplicate), the “% of glucose uptake” value is recorded as 78 ± 18^b %. Further, the “% of maximal BRET” value in test [1] (HEK293 cells co-expressing IR-Rluc and IRS1-YFP, single treatment 60 min, 37°C, maximal BRET increase of dose-response, % of insulin's response taken as 100%, mean ± SD of four independent experiments in triplicate) is recorded as 13 ± 1^c %. For the same substance, the “BRET increase in single treatment (in words)” value in test [1] (HEK293 cells, peptides applied alone) is “did not promote any significant BRET increase”. The “BRET, % of the maximal response of insulin, Average” value is reported as 10.7 in test [1] (peptide 0.001 mg/ml, 37°C); 9.6 in test [1] (peptide 0.005 mg/ml, 37°C); 15.8 in test [1] (peptide 0.01 mg/ml, 37°C); 14.2 in test [1] (peptide 0.05 mg/ml, 37°C); 10.1 in test [1] (peptide 0.1 mg/ml, 37°C); 15.2 in test [1] (peptide 0.5 mg/ml, 37°C). Also, the “BRET, % of the maximal response of insulin, Average” value in test [1] (peptide 1 mg/ml, 37°C) is on record as 10.9. Besides, in test [2], the “AKT phosphorylation, single treatment (in words)” value is “led to IR and AKT phosphorylation”. Also, the “IR phosphorylation, single treatment (in words)” value in test [3] was “led to IR and AKT phosphorylation”. The “insulin-induced BRET, % of insulin's response in the vehicle, Average” value in test [4] (Average of Experiments 1-7, 1 μM insulin + 0.1 mg/ml peptide, HEK293, minimal data set for Figure 2) is reported as 113.5. For the same substance, the “insulin-induced BRET, % of insulin's response in the vehicle” value in test [4] (Experiment 1, 1 μM insulin + 0.1 mg/ml peptide, HEK293, minimal data set for Figure 2) came out at 76.2; in test [4] (Experiment 2, 1 μM insulin + 0.1 mg/ml peptide, HEK293, minimal data set for Figure 2) it was 79.6; in test [4] (Experiment 3, 1 μM insulin + 0.1 mg/ml peptide, HEK293, minimal data set for Figure 2), 121.9; in test [4] (Experiment 4, 1 μM insulin + 0.1 mg/ml peptide, HEK293, minimal data set for Figure 2), 113.1; in test [4] (Experiment 5, 1 μM insulin + 0.1 mg/ml peptide, HEK293, minimal data set for Figure 2) it was 93.8; in test [4] (Experiment 6, 1 μM insulin + 0.1 mg/ml peptide, HEK293, minimal data set for Figure 2) it was 168.9. Besides, the “insulin-induced BRET, % of insulin's response in the vehicle” value in test [4] (Experiment 7, 1 μM insulin + 0.1 mg/ml peptide, HEK293, minimal data set for Figure 2) turned out to be 141.2. Besides, the “% of maximal BRET (insulin-induced)” value in test [4] (HEK293 cells, 1 μM insulin + 0.1 mg/ml peptide, 1 hour, 37°C, % of insulin's response in the vehicle taken as 100%, mean ± SD of five to seven independent experiments in triplicate) is reported as 114 ± 13^a %. Also, in test [4] (HEK293 cells, 0.1 mg/ml peptide + 1 μM insulin, compared to insulin alone (Vehicle)), the “profile on insulin-dependent BRET response in combined treatment (in words)” value is “non-efficient”.
